Legend:
MDA-MB-231/ATCC (Breast) = assay: NCI single point 10 μM, MDA-MB-231/ATCC; format: cell-based, human; conditions: 10^−5 M
Protocol: (§1) The screening is a two-stage process, beginning with the evaluation of all compounds against 60 cell lines at a single dose of 10^−5 M.
(§2) The human tumor cell lines of the cancer screening panel are grown in RPMI 1640 medium containing 5% fetal bovine serum and 2 mM L-glutamine. Cells are inoculated into 96 well microtiter plates in 100 μL at plating densities ranging from 5,000 to 40,000 cells/well depending on the doubling time of individual cell lines. After cell inoculation, the microtiter plates are incubated at 37° C., 5% CO2, 95% air and 100% relative humidity for 24 h prior to addition of experimental drugs. […]
(§3) Following drug addition, the plates are incubated for an additional 48 h at 37° C., 5% CO2, 95% air, and 100% relative humidity. […] Bound stain is subsequently solubilized with 10 mM trizma base, and the absorbance is read on an automated plate reader at a wavelength of 515 nm. […]
(§4) For the 1-dose 60 cell testing, the Growth Percent is calculated for each cell line/drug combination from the absorbance measurement for the no-drug control (C), the absorbance at time zero (Tz) and the absorbance measurement after incubation of the cells in the presence of drug (Ti): Growth Percent=[(Ti−Tz)/(C−Tz)]×100 for cell line/drug combinations for which Ti≧Tz. […]

OVCAR-5 (ovarian cancer) = assay: NCI five point dosing, OVCAR-5; format: cell-based, human
Protocol: RL-4 was evaluated against the 60 cell panel at five concentration levels, 10^−8 M, 10^−7 M, 10^−6 M, 10^−5 M and 10^−4 M.
as §2, §3
The percentage growth is calculated at each of the five drug concentrations levels using the seven absorbance measurements, namely absorbance at time zero (Tz), absorbance of control after incubation (C), and absorbance of test sample after incubation in the presence of drug at each of the five concentration levels (Ti). The Growth Percent is calculated as it was for the 1 dose assay: Growth Percent=[(Ti−Tz)/(C−Tz)]×100 for cell line/drug combinations for which Ti≧Tz. […]

SK-MEL-5 (Melanoma) = assay: NCI single point 10 μM, SK-MEL-5; format: cell-based, human; conditions: 10^−5 M
Protocol: as §1, §2, §3, §4

Colo-205 cells = assay: MTT cell proliferation assay, Colo-205; format: cell-based; conditions: 72 h-exposure, 30-0.041 μM
Protocol: In vitro characterizing of the effects of rilyazine analogs on cell proliferation and apoptosis in the paired epithelial/mesenchymal lines (Colo205/Colo-R, DLD/DLD-SNAIL and MCF7/MCF7-WISP) was performed in an independent laboratory.
The Dose Preparation is based on a reconstitute in DMSO. The Concentration of the stock solution is 100 mM. Storage of the stock solution is under −80° C.
Working drug solution of rilyazine analogs: A stock solution of 100 mM OTX015 in DMSO was prepared and stored at −80° C. For growth inhibition studies, dilution series were prepared by (1) diluting stock solution into DMSO, then (2) diluting 1:300 in culture medium supplemented with 10% FBS giving a final concentration in 0.3% DMSO in the 96-well plates.
Cell lines. Cells lines were maintained in RPMI 1640 (PAA Laboratories, France) supplemented with 10% fetal bovine serum (FBS; PAA Laboratories, France), 2 mM glutamine (PAA Laboratories, France), 100 units/ml penicillin and 100 μg/ml streptomycin (PAA Laboratories, France). Cells were free of Mycoplasma.
Proliferation assays. Cell proliferation was determined using the MTT assay (3-[4,5-dimethylthiazol-2-yl]-2,5-diphenyltetrazolium bromide; Sigma-Aldrich, St. Louis, Mo.). […] After incubation, the supernatant was discarded, the cell pellet was resuspended in 0.1 mL DMSO, and the absorbance was measured at 560 nm using a microplate reader (Thermo, France). […]

SMILES: S=c1c2ncccc2c(-c2ccccn2)nn1C1CCCCC1 [RL-4, 7-cyclohexyl-5-(pyridin-2-yl)pyrido[2,3-d]pyridazine-8(7H)-thione]
- Growth Percent (MDA-MB-231/ATCC (Breast)): 129.23%
- Growth Percent (OVCAR-5 (ovarian cancer); 10^−4 M dose): 54%
- GI50 (OVCAR-5 (ovarian cancer); Homo sapiens, five point dosing): > 100 µM
- Growth Percent (SK-MEL-5 (Melanoma)): 7.87%
- anti-proliferative effects (in words) (Colo-205 cells): dose-dependent anti-proliferative effects

Source: US9394299B2, “Rilyazine derivatives and compositions for the treatment of cancer” (Warner Babcock Institute for Green Chemistry, LLC, priority 2013, dated 2016)
